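A five-concentration, 48-hour dose response in 96-well plates underlies each endpoint, interpolated linearly between surrounding concentrations. GI50 marks 50% less growth.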 Active and inactive are the calls of the source. Cut-off read from the data, not from the text of the source: active = GI50 up to about 1.1 µM and inactive = higher.
What was measured:
Test in all cases: NCI tumour cell line growth inhibition, 48 h
[1] = tested on: 786-0
[2] = tested on: A498
[3] = tested on: A549
[4] = tested on: ACHN
[5] = tested on: BT-549
[6] = tested on: CAKI-1
[7] = tested on: CCRF-CEM
[8] = tested on: COLO 205
[9] = tested on: DU-145
[10] = tested on: EKVX
[11] = tested on: HCC 2998
[12] = tested on: HCT-116
[13] = tested on: HCT-15
[14] = tested on: HL-60
[15] = tested on: HOP-62
[16] = tested on: HOP-92
[17] = tested on: HT-29
[18] = tested on: Hs-578T
[19] = tested on: IGROV-1
[20] = tested on: K562
[21] = tested on: KM12
[22] = tested on: LOX IMVI
[23] = tested on: M14
[24] = tested on: MCF7
[25] = tested on: MDA-MB-231
[26] = tested on: MDA-MB-435
[27] = tested on: MDA-N
[28] = tested on: MOLT-4
[29] = tested on: Malme-3M
[30] = tested on: NCI-H226
[31] = tested on: NCI-H23
[32] = tested on: NCI-H460
[33] = tested on: NCI-H522
[34] = tested on: NCI/ADR-RES
[35] = tested on: OVCAR-3
[36] = tested on: OVCAR-4
[37] = tested on: OVCAR-5
[38] = tested on: OVCAR-8
[39] = tested on: SF-268
[40] = tested on: SF-295
[41] = tested on: SF-539
[42] = tested on: SK-MEL-28
[43] = tested on: SK-MEL-2
[44] = tested on: SK-MEL-5
[45] = tested on: SK-OV-3
[46] = tested on: SN12C
[47] = tested on: SNB-75
[48] = tested on: SR
[49] = tested on: SW-620
[50] = tested on: T47D
[51] = tested on: TK-10
[52] = tested on: U-251
[53] = tested on: UACC-257
[54] = tested on: UACC-62
[55] = tested on: UO-31
[56] = tested on: PC-3
[57] = tested on: RPMI-8226
[58] = tested on: SNB-19

O=C(c1ccccc1)N1CCN(C(=S)NC2CCCCC2)C1=S
GI50 [1]: 21.8 µM (inactive) | GI50 [2]: 19 µM (inactive) | GI50 [3]: 13.4 µM (inactive) | GI50 [4]: 24.3 µM (inactive) | GI50 [5]: 17.1 µM (inactive) | GI50 [6]: 24 µM (inactive) | GI50 [7]: 12.2 µM (inactive) | GI50 [8]: 18.5 µM (inactive) | GI50 [9]: 21.8 µM (inactive) | GI50 [10]: 16.1 µM (inactive) | GI50 [11]: 16.4 µM (inactive) | GI50 [12]: 16.1 µM (inactive) | GI50 [13]: 15.8 µM | GI50 [14]: 21.9 µM (inactive) | GI50 [15]: 18 µM (inactive) | GI50 [16]: 15.5 µM (inactive) | GI50 [17]: 20.2 µM (inactive) | GI50 [18]: 19 µM (inactive) | GI50 [19]: 24.2 µM (inactive) | GI50 [20]: 33.3 µM (inactive) | GI50 [21]: 16 µM (inactive) | GI50 [22]: 16 µM (inactive) | GI50 [23]: 16.8 µM (inactive) | GI50 [24]: 22.8 µM (inactive) | GI50 [25]: 7.03 µM (inactive) | GI50 [26]: 19.5 µM (inactive) | GI50 [27]: 19.4 µM (inactive) | GI50 [28]: 17.5 µM (inactive) | GI50 [29]: 15.5 µM (inactive) | GI50 [30]: 14.7 µM (inactive) | GI50 [31]: 15.9 µM (inactive) | GI50 [32]: 21.4 µM (inactive) | GI50 [33]: 15.8 µM (inactive) | GI50 [34]: 17.7 µM (inactive) | GI50 [35]: 15.6 µM (inactive) | GI50 [36]: 18.9 µM (inactive) | GI50 [37]: 21.7 µM (inactive) | GI50 [38]: 17 µM (inactive) | GI50 [39]: 16.8 µM (inactive) | GI50 [40]: 20.9 µM (inactive) | GI50 [41]: 13.5 µM (inactive) | GI50 [42]: 14.9 µM (inactive) | GI50 [43]: 4.58 µM (inactive) | GI50 [44]: 17.4 µM (inactive) | GI50 [45]: 25.7 µM (inactive) | GI50 [46]: 17.8 µM (inactive) | GI50 [47]: 11.1 µM (inactive) | GI50 [48]: 28.5 µM (inactive) | GI50 [49]: 21.6 µM (inactive) | GI50 [50]: 15.8 µM (inactive) | GI50 [51]: 25.8 µM (inactive) | GI50 [52]: 9.89 µM (inactive) | GI50 [53]: 18.7 µM (inactive) | GI50 [54]: 19.3 µM (inactive) | GI50 [55]: 16.1 µM (inactive)

CC12CCCC(C(=O)O)(C1)[C@H](C(C)(C)C(=O)O)CC2 (some centres undefined)
GI50 [1]: > 100 µM (inactive) | GI50 [3]: > 100 µM (inactive) | GI50 [4]: > 100 µM (inactive) | GI50 [5]: > 100 µM (inactive) | GI50 [6]: > 100 µM (inactive) | GI50 [7]: > 100 µM (inactive) | GI50 [8]: > 100 µM (inactive) | GI50 [9]: > 100 µM (inactive) | GI50 [10]: > 100 µM (inactive) | GI50 [12]: > 100 µM (inactive) | GI50 [13]: > 100 µM | GI50 [14]: > 100 µM (inactive) | GI50 [15]: > 100 µM (inactive) | GI50 [16]: > 100 µM (inactive) | GI50 [17]: > 100 µM (inactive) | GI50 [18]: > 100 µM (inactive) | GI50 [19]: > 100 µM (inactive) | GI50 [20]: > 100 µM (inactive) | GI50 [21]: > 100 µM (inactive) | GI50 [22]: > 100 µM (inactive) | GI50 [23]: > 100 µM (inactive) | GI50 [24]: > 100 µM (inactive) | GI50 [26]: > 100 µM (inactive) | GI50 [27]: > 100 µM (inactive) | GI50 [28]: > 100 µM (inactive) | GI50 [29]: > 100 µM (inactive) | GI50 [30]: > 100 µM (inactive) | GI50 [31]: > 100 µM (inactive) | GI50 [32]: > 100 µM (inactive) | GI50 [33]: > 100 µM (inactive) | GI50 [34]: > 100 µM (inactive) | GI50 [35]: > 100 µM (inactive) | GI50 [36]: > 100 µM (inactive) | GI50 [37]: > 100 µM (inactive) | GI50 [38]: > 100 µM (inactive) | GI50 [56]: > 100 µM (inactive) | GI50 [57]: > 100 µM (inactive) | GI50 [39]: > 100 µM (inactive) | GI50 [40]: > 100 µM (inactive) | GI50 [42]: > 100 µM (inactive) | GI50 [43]: > 100 µM (inactive) | GI50 [44]: > 100 µM (inactive) | GI50 [45]: > 100 µM (inactive) | GI50 [46]: > 100 µM (inactive) | GI50 [58]: > 100 µM (inactive) | GI50 [47]: > 100 µM (inactive) | GI50 [48]: > 100 µM (inactive) | GI50 [49]: > 100 µM (inactive) | GI50 [50]: > 100 µM (inactive) | GI50 [51]: > 100 µM (inactive) | GI50 [52]: > 100 µM (inactive) | GI50 [53]: > 100 µM (inactive) | GI50 [54]: > 100 µM (inactive) | GI50 [55]: > 100 µM (inactive)

From ChEMBL document CHEMBL1201862, “PubChem BioAssay data set” (2004)
